Measurements taken from patent US9695132B2, “Heteroaryl compounds and uses thereof” (Celgene CAR LLC, priority 2013, dated 2017).

What was measured:
FGFR4-WT = FGFR4-WT (Homo sapiens (Human), UniProt P22455); assay: Omnia assay for potency assessment against FGFR4 enzyme; format: biochemical; settings: [Y10-Sox]=10 uM
Procedure: A 10× stock solution of FGFR4-WT (PR4380C), (from Invitrogen, Carlsbad, Calif.) corresponding to method a in Table 7, was prepared as described below. Alternatively, a 10× stock solution of FGFR4-WT (F01-11G), (SignalChem, Richmond, BC) corresponding to method b in Table 7, was prepared as described below. A solution of 1.4×ATP (AS001A) and 5× Tyr-Sox conjugated peptide substrate (KNZ3101) were prepared in 1× kinase reaction buffer consisting of 20 mM Tris, pH 7.5, 5 mM MgCl2, 1 mM EGTA, 5 mM β-glycerophosphate, 5% glycerol (10× stock, KB002A) and 0.2 mM DTT (DS001A). […] The serially diluted compounds were prepared on a Tecan EVO100. A second addition of 10 μl of Tyr-Sox FGFR4 substrate was added to each well and the kinase reactions were started with the addition of 35 μL of 1.4×ATP. The reactions were monitored every 71 seconds for 240 minutes at λex360/λem485 in a Synergy plate reader from BioTek (Winooski, Vt.).

pFGFR4 in Huh7 cells = pFGFR4 in Huh7 cells (Homo sapiens (Human), UniProt P22455); assay: FGFR4 signaling, Meso Scale assay (MSD), Method B, Huh7
Procedure: Huh7 cells were grown in DMEM (Invitrogen, Carlsbad, Calif.) supplemented with 10% FBS (Invitrogen) and 1% Penicillin-Streptomycin (P/S, Lonza, Walkersville, Md.).
For the MSD and ELISA assays, total FGFR4 antibodies were obtained from R&D Systems (Minneapolis, Minn.) and used at 1:500. […] Phospho-FGFR antibodies were obtained from Cell Signaling (Danvers, Mass.) or R&D Systems and used at 1:1000. The phopho-FGFR antibody from Cell Signaling was used for immunoblotting, whereas the phopho-FGFR antibody from R&D was used for MSD and ELISA assays. Secondary antibodies were used at 1:10,000. The goat anti-mouse IgG IRDye 800CW antibody was obtained from LiCor Biosciences (Lincoln, Nebr.) and the goat anti-rabbit IgG Alexa Fluor 680 was obtained from Invitrogen. The anti-rabbit Sulfo-tag and anti-streptavidin Sulfo-tag antibodies was obtained from Meso Scale Discovery (Gaithersburg, Md.), and were used at 1:1000 and 1:5000, respectively.
After treatment, the cells were washed with cold PBS (Invitrogen), and were immediately lysed by freeze/thawing 3× in 32 μL of cold Cell Extraction Buffer (Invitrogen), which was supplemented with Complete Protease inhibitors (Roche) and PhosphoSTOP (Roche) phosphatase inhibitors.
MSD plates (Meso Scale Discovery) were coated with total FGFR-4 antibodies overnight at 4° C. A lysate (25 μL) was added to the MSD plate overnight at 4° C. The MSD signals were obtained by incubating with a phospho-FGFR antibody (R&D Systems) and an anti-rabbit sulfo-tag antibody (Meso Scale), for 2 hr at room temperature. […] The data was fitted using a sigmoidal curve analysis program (Graph Pad Prism version 5) with variable Hill slope to determine the EC50 values.

[1] = method a: [FGFR4-WT]=10 nM (Invitrogen), [ATP]=300 uM
[2] = method b: [FGFR4-WT]=2.5 nM (SignalChem), [ATP]=250 uM

Sequence of pFGFR4 in Huh7 cells (P22455 22-802): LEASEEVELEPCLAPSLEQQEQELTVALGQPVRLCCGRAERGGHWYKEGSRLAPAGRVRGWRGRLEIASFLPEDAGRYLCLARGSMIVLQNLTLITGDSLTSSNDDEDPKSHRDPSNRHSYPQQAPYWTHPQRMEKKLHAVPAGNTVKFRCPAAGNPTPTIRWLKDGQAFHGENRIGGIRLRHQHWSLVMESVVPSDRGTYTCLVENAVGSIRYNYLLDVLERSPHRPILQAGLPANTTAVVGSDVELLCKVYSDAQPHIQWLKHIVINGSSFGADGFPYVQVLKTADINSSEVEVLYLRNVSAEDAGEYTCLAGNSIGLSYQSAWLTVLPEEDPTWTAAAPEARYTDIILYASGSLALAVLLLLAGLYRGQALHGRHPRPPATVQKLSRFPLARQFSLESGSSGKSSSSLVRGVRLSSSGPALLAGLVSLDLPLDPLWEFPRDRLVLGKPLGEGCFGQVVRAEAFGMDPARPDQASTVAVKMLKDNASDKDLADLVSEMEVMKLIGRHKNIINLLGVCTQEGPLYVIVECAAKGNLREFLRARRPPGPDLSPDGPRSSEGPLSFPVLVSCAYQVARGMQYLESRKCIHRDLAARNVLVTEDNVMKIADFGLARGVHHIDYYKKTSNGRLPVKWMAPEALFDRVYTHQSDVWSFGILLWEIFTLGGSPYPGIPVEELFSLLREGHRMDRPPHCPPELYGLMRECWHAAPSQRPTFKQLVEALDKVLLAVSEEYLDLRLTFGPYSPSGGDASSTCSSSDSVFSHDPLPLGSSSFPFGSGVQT
Sequence of FGFR4-WT (P22455 22-802): as above

| Structure (SMILES) | IC50 (FGFR4-WT; [1]) | EC50 (pFGFR4 in Huh7 cells) | IC50 (FGFR4-WT; [2]) |
| --- | --- | --- | --- |
| C=CC(=O)NC1COCC1Nc1ncc2c(n1)N(C)C(=O)N(c1c(Cl)c(OC)cc(OC)c1Cl)C2 (centres unmarked) [Compound I-126] | < 100 nM | < 100 nM | – |
| C=CC(=O)NC1COCC1Nc1ncc2c(n1)N(C)C(=O)N(c1cc(OC)c(OC)c(OC)c1)C2 (centres unmarked) [Compound I-207] | > 1000 nM | > 1000 nM | – |
| C=CC(=O)NC1COCC1Nc1ncc2c(n1)N(C)C(=O)N(c1c(Cl)c(OCC)cc(OCC)c1Cl)C2 (centres unmarked) [Compound I-205] | 101 to 500 nM | 101 to 500 nM | – |
| C=CC(=O)Nc1cc(N(C)CCOC)ccc1Nc1ncc2c(n1)N(C)C(=O)N(c1cc(OC)cc(OC)c1)C2 [Compound I-21] | < 100 nM | < 100 nM | – |
| C=CC(=O)Nc1cc(F)ccc1Nc1ncc2cc(-c3c(Cl)c(OC)cc(OC)c3Cl)c(=O)n(C)c2n1 [Compound I-245] | < 100 nM | < 100 nM | – |
| C=CC(=O)N[C@H]1CCCC[C@H]1Nc1ncc2c(n1)N(Cc1cscn1)C(=O)N(c1c(Cl)c(OC)cc(OC)c1Cl)C2 [Compound I-114] | – | 101 to 500 nM | – |
| C=CC(=O)Nc1cc(N2CCN(CCOC)CC2)ccc1Nc1ncc2c(n1)N(Cc1cccc(NC(=O)CC)c1)C(=O)N(c1cc(OC)cc(OC)c1)C2 [Compound I-9] | – | 101 to 500 nM | – |
| C=CC(=O)Nc1cc(OC)ccc1Nc1ncc2cc(-c3c(Cl)c(OC)cc(OC)c3Cl)c(=O)n(C)c2n1 [Compound I-242] | – | < 100 nM | – |
| C=CC(=O)Nc1ccccc1Nc1ncc2cc(-c3cc(OC)cc(OC)c3)c(N)nc2n1 [Compound I-155] | – | > 1000 nM | – |
| C=CC(=O)NC1COCC1Nc1ncc2c(n1)N(Cc1cscn1)C(=O)N(c1c(Cl)c(OC)cc(OC)c1Cl)C2 (centres unmarked) [Compound I-210] | – | < 100 nM | – |
| C=CC(=O)N[C@H]1CCCC[C@H]1Nc1ncc2c(n1)N(Cc1cn[nH]c1)C(=O)N(c1c(Cl)c(OC)cc(OC)c1Cl)C2 [Compound I-152] | < 100 nM | – | – |
| C=CCN1C(=O)N(c2cc(OC)cc(OC)c2)Cc2cnc(Nc3ccccc3NC(=O)C=C)nc21 [Compound I-32] | < 100 nM | – | – |
| C=CC(=O)Nc1ccccc1Nc1ncc2c(n1)N(C)C(=O)N(c1c(Cl)c(OC)cc(OC)c1Cl)C2 [Compound I-2] | – | – | < 100 nM |
| COc1cc(OC)c(Cl)c(N2Cc3cnc(Nc4ccccc4)nc3N(C)C2=O)c1Cl [Compound I-238] | – | < 100 nM | – |
| C=CC(=O)Nc1ccc(-c2nccs2)cc1Nc1ncc2c(n1)N(C)C(=O)N(c1cc(OC)cc(OC)c1)C2 [Compound I-78] | < 100 nM | – | – |
| C=CC(=O)Nc1cc(N2CCN(C(=O)CCC(=O)O)CC2)ccc1Nc1ncc2c(n1)N(C)C(=O)N(c1c(Cl)c(OC)cc(OC)c1Cl)C2 [Compound I-123] | < 100 nM | – | – |
| C=CC(=O)Nc1ccccc1Nc1ncc2c(n1)N(CC(O)CO)C(=O)N(c1cc(OC)cc(OC)c1)C2 (centres unmarked) [Compound I-33] | – | > 1000 nM | – |
| C=CC(=O)Nc1ccccc1Nc1ncc2c(n1)N(CC1CCNCC1)C(=O)N(c1cc(OC)cc(OC)c1)C2 [Compound I-40] | < 100 nM | – | – |
| C=CC(=O)NC1CN(c2ccccn2)CC1Nc1ncc2c(n1)N(C)C(=O)N(c1c(Cl)c(OC)cc(OC)c1Cl)C2 (centres unmarked) [Compound I-202] | < 100 nM | – | – |
| C=CC(=O)Nc1ccc(-c2cnn(C)c2)cc1Nc1ncc2c(n1)N(C)C(=O)N(c1c(Cl)c(OC)cc(OC)c1Cl)C2 [Compound I-74] | < 100 nM | – | – |
| COc1cc(OC)cc(N2Cc3cnc(Nc4ccccc4)nc3N(C)C2=O)c1 [Compound I-237] | 101 to 500 nM | – | – |
| C=CC(=O)Nc1ccccc1Nc1ncc2c(n1)N(CC(F)F)C(=O)N(c1c(Cl)c(OC)cc(OC)c1Cl)C2 [Compound I-103] | < 100 nM | – | – |
| C=CC(=O)Nc1ccccc1Nc1ncc2c(n1)N(Cc1ccn(C)n1)C(=O)N(c1c(Cl)c(OC)cc(OC)c1Cl)C2 [Compound I-136] | < 100 nM | – | – |
| C=CC(=O)NCc1ccccc1Nc1ncc2c(n1)N(C)C(=O)N(c1c(Cl)c(OC)cc(OC)c1Cl)C2 [Compound I-181] | – | – | < 100 nM |
| C=CC(=O)NC1CCCCC1Nc1ncc2c(n1)NC(=O)N(c1c(Cl)c(OC)cc(OC)c1Cl)C2 (racemic) [Compound I-73] | 101 to 500 nM | – | – |
| C=CC(=O)NC1CN(C(C)=O)CC1Nc1ncc2c(n1)N(C)C(=O)N(c1c(Cl)c(OC)cc(OC)c1Cl)C2 (racemic) [Compound I-139] | – | 101 to 500 nM | – |
| C=C(C)C(=O)Nc1ccccc1Nc1ncc2c(n1)N(C)C(=O)N(c1c(Cl)c(OC)cc(OC)c1Cl)C2 [Compound I-142] | < 100 nM | – | – |
